Laboratory results: paper PMC7562955 (Nature Communications, 2020)
Values after ≈ are worked out from the molar mass of the structure shown.

Columns and labels:
TLR7 = target: T1, TLR7 (Homo sapiens, UniProt Q9NYK1); test: Human TLR7 reporter gene agonistic activity assay; format: cell-based; set-up: host or cells: HEK293 (TLR7/NF-κB/SEAPorter)
T1 sequence (Q9NYK1 27-1049): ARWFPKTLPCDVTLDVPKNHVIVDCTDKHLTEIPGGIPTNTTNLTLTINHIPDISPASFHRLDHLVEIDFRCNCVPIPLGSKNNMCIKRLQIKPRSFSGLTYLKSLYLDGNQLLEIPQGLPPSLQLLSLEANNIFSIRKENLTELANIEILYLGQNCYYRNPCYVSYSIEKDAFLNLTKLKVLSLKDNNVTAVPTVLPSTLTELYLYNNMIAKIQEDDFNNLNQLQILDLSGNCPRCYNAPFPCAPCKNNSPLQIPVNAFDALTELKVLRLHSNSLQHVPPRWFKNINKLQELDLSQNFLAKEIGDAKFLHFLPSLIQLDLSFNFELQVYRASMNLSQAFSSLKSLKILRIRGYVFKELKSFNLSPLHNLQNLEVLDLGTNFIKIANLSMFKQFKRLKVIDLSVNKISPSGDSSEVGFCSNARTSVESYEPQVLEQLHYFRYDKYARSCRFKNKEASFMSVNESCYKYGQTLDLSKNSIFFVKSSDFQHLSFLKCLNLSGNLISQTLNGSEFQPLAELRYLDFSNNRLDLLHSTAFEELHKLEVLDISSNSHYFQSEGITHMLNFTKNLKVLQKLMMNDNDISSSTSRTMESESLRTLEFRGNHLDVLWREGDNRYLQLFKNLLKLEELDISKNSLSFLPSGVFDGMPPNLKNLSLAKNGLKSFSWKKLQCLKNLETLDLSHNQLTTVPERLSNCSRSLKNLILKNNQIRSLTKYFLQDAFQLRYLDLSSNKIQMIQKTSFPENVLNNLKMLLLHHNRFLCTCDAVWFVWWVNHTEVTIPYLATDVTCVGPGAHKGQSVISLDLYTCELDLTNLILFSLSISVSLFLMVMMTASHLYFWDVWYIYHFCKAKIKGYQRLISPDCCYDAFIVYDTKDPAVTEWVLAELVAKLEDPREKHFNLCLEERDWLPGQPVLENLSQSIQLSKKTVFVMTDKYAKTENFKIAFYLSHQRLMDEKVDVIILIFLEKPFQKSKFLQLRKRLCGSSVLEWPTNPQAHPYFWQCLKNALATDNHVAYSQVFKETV
Procedure: Compounds were dissolved in dimethyl sulfoxide. Before stimulation with compound, Human TLR7 reporter cell line (Novus Biological) was seeded in 96-well microtiter plate (AGC techno glass) at 5 × 10^4 cells/well in DMEM (GIBCO) with 10% fetal bovine serum (GIBCO), and 10 ug/ml Blastcidin S HCl (GIBCO) and incubated at 37 °C in 5% CO2. The plates were incubated over-night and then stimulated with various concentrations of compound and R848. The plates were then incubated an additional 20 ± 1 h at 37 °C in 5% CO2 and then the secreted embryonic alkaline phosphatase (SEAP) activity was measured as activation of human TLR7. The SEAP activity was evaluated as follows: pNPP (Invitrogen, USA) was added to the incubated sample (50 μl/well); after 15 min, 4 M sodium hydroxide solution (nacalai tesque, Japan) was added thereto (50 μl/well) to quench the reaction; and the absorbance of each sample was measured at 405 nm with microplate reader SpectraMax M4 (Molecular Devices, USA).

[1] = Solubility measurement in isotonic buffer; format: physicochemical; conditions: isotonic disodium hydrogen phosphate/citric acid buffer, 25 °C, aqueous buffer, kinetic from dmso stock; pH 7.4 buffer
Procedure: Compound was dissolved in dimethyl sulfoxide at 10 mM. A 1.75% disodium hydrogen phosphate aqueous solution and a 5.53% citric acid aqueous solution were mixed while monitoring with a pH meter to prepare an isotonic buffer solution having a pH of 7.4. The dimethyl sulfoxide solution and the isotonic buffer solution of pH 7.4 was mixed and shaken at 110 rpm for 90 min at 25 °C by a constant temperature incubator shaker. After standing for 16–20 h, the mixture was centrifuged to precipitate insoluble matter, and the supernatant was collected. Separately, standard solutions of the compound were prepared by dissolving the compound in a mixture of acetonitrile and water (1:1). The analytical sample and the standard solutions were measured by UHPLC-UV (Waters, USA). The degree of solubility was calculated by comparing the peak area of the analytical sample with standard solutions.

Structure (SMILES)	activation of TLR7 (TLR7)	activation of human TLR7, reporter signal (TLR7; compound 0.001 nM (as headed))	activation of human TLR7, reporter signal (TLR7; compound 0.003 nM (as headed))	activation of human TLR7, reporter signal (TLR7; compound 0.01 nM (as headed))	activation of human TLR7, reporter signal (TLR7; compound 0.03 nM (as headed))	activation of human TLR7, reporter signal (TLR7; compound 0.1 nM (as headed))	activation of human TLR7, reporter signal (TLR7; compound 0.3 nM (as headed))	activation of human TLR7, reporter signal (TLR7; compound 1 nM (as headed))	activation of human TLR7, reporter signal (TLR7; compound 3 nM (as headed))	activation of human TLR7, reporter signal (TLR7; compound 10 nM (as headed))	activation of human TLR7, reporter signal (TLR7; compound 30 nM (as headed))	activation of human TLR7, reporter signal (TLR7; compound 100 nM (as headed))	solubility at 90 min [1] [µg/mL]
CCCCOc1nc(N)c2nc(-c3cccnc3)n(Cc3ccccc3)c2n1 [Cpd-5]	without causing any inhibition of either TLR8 or TLR9 and activation of TLR7	-0.0519	-0.05305	-0.08885	-0.06455	-0.0507	-0.02125	-0.05725	-0.0655	-0.0852	-0.0846	-0.0973	0.3 (≈ 0.801 µM)
CCOc1nc(N)c2nc(-c3cncc(F)c3)n(Cc3ccc(CN4C[C@@H]5C[C@H]4CN5C)cc3)c2n1 [Cpd-6]		-0.07495	-0.076	-0.1139	-0.0956	-0.074	-0.01435	-0.0641	-0.07475	-0.1166	-0.1098	-0.12	> 150
CCOc1nc(C)c2nc(-c3cncc(F)c3)n(Cc3ccc(CN4C[C@@H]5C[C@H]4CN5C)cc3)c2n1 [Cpd-7]		-0.0428	-0.04595	-0.1002	-0.06165	-0.0434	-0.02775	-0.0578	-0.0693	-0.1036	-0.0961	-0.09835	> 150
